Each structure is given as a SMILES string.

The target in the first test is T1, human KV 1.5 (Homo sapiens, UniProt P22460).
T1 construct: expressed in transfected cells; host or cells: mammalian L-929 cells (mouse fibroblast line)
T1 sequence (P22460 whole entry): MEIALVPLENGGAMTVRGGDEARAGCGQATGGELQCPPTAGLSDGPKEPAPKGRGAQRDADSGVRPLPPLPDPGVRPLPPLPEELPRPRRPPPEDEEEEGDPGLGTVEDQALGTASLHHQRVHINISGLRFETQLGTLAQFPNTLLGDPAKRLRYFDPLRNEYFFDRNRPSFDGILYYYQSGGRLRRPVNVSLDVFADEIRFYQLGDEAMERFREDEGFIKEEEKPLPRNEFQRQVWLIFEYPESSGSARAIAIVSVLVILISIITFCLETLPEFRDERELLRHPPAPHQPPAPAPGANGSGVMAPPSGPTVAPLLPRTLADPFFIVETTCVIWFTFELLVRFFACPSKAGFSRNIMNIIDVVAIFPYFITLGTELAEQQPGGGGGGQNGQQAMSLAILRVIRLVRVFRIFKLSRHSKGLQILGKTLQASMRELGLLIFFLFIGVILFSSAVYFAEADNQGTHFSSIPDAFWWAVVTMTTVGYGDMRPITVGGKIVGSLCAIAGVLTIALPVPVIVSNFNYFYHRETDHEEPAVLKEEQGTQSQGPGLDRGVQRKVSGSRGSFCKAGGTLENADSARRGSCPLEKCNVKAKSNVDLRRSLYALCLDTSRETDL
The test is described as follows: Block of IKur current in patch clamped L-929 cells expressing human Kv1.5. The format is cell-based. To be noted: 0.3 μM; patch clamped mammalian L-929 cells stably expressing human Kv1.5 (IKur). The source says:
1. Synders, D. J.; et al., “A rapidly activating and slowly inactivating potassium channel cloned from human heart: functional analysis after stable mammalian cell culture expression”, J. Gen. Physiol., 101:513-543 (1993). […]
Background: In patch-clamp work, channel activity is measured electrically.
Take `CC(Nc1nnc(-c2cncc(S(N)(=O)=O)c2)c2cccc(-c3ccccc3)c12)c1ccccn1` (stereo not drawn) [Example 34, 5-(5-Phenyl-4-((1-(pyridin-2-yl)ethyl)amino)phthalazin-1-yl)pyridine-3-sulfonamide]: the “KV1_5% Inh L929 @0.3 μM” value is 84%.

The same test, now with this note: L929, 0.3 μM; patch clamped mammalian L-929 cells stably expressing human Kv1.5 (IKur); read-out: KV1_5% Inh L929 @0.3 μM.
Consider `CC(C)(C)CCNC(=O)c1cncc(-c2nnc(NCc3ccccn3)c3c(-c4ccccc4)cccc23)c1` [Example 47, N-(3,3-Dimcthylbutyl)-5-(5-phenyl-4-((pyridin-2-ylmethyl)amino)phthalazin-1-yl)nicotinamide], for which the inhibition at 0.3 µM was 96.4%.

On to `CC(C)CC(=O)Nc1cncc(-c2nnc(NCc3ccccc3)c3c(-c4ccccc4)cccc23)c1` [Example 22, N-(5-(4-(Benzyl-amino)-5-phenylphthalazin-1-yl)pyridin-3-yl)-3-methylbutanamide], for which the inhibition at 0.3 µM came out at 91.5%. For the molecule `CC(=O)Nc1cncc(-c2nnc(NCc3ccccc3)c3c(-c4ccccc4)cccc23)c1` [Example 2, N-(5-(4-(Benzylamino)-5-phenylphthalazin-1-yl)pyridin-3-yl)acetamide], the inhibition at 0.3 µM amounted to 83.9%. Same read-out and setting: the result for `NS(=O)(=O)c1cncc(-c2nnc(NCc3ncccc3F)c3c(-c4ccccc4)cccc23)c1` [Example 37, 5-(4-((3-Fluoropyridin-2-yl)methylamino)-5-phenylphthalazin-1-yl)pyridine-3-sulfonamide] reads 78.6%; that for `CC(C)(Nc1nnc(-c2cncc(S(N)(=O)=O)c2)c2cccc(-c3ccccc3)c12)c1ccccn1` [Example 35, 5-(5-Phenyl-4-((2-(pyridin-2-yl)propan-2-yl)amino)phthalazin-1-yl)pyridine-3-sulfonamide], 86.3%; that for `CS(=O)(=O)Nc1cccc(NC(=O)c2cncc(-c3nnc(NCc4ccccn4)c4c(-c5ccccc5)cccc34)c2)c1` [Example 14, N-(3-(Methylsulfonamido)phenyl)-5-(5-phenyl-4-(pyridin-2-ylmethylamino)phthalazin-1-yl)nicotinamide], 71%.

`Oc1cc(-c2nnc(NCc3ccccc3)c3c(-c4ccccc4)cccc23)ccn1` [Example 25, 4-(4-(Benzyl-amino)-5-phenylphthalazin-1-yl)pyridin-2-ol]: the inhibition at 0.3 µM is 80.2%.

`NC(=O)Nc1cncc(-c2nnc(NCc3ccccc3)c3c(-c4ccccc4)cccc23)c1` [Example 10, 1-(5-(4-(Benzylamino)-5-phenylphthalazin-1-yl)pyridin-3-yl)urea]: the inhibition at 0.3 µM came to 51.1%. Regarding `CCOC(=O)c1cncc(-c2nnc(NCc3ccccc3)c3c(-c4ccccc4)cccc23)c1` [Example 24, Ethyl 5-(4-(benzyl-amino)-5-phenylphthalazin-1-yl) nicotinate], the inhibition at 0.3 µM turned out to be 96.5%. Regarding `COc1ccccc1CNc1nnc(-c2cncc(S(N)(=O)=O)c2)c2cccc(-c3ccccc3)c12` [Example 19, 5-(4-((2-Methoxy-benzyl)amino)-5-phenylphthalazin-1-yl)pyridine-3-sulfonamide], the inhibition at 0.3 µM was determined as 72.5%. For the molecule `COc1ncc(-c2nnc(NCc3ccccc3)c3c(-c4ccccc4)cccc23)cn1` [Example 26, N-Benzyl-4-(2-methoxy-pyrimidin-5-yl)-8-phenylphthalazin-1-amine], the inhibition at 0.3 µM was 93.1%. For the molecule `NS(=O)(=O)c1cncc(-c2nnc(NCc3ccccn3)c3c(-c4ccccc4)cccc23)c1` [Example 1, 5-(5-Phenyl-4-(pyridin-2-ylmethylamino)phthalazin-1-yl)pyridine-3-sulfonamide], the inhibition at 0.3 µM was found to be 79.5%. Consider `CC(C)OC(=O)Nc1cncc(-c2nnc(NCc3ccccn3)c3c(-c4ccccc4)cccc23)c1` [Example 12, Isopropyl 5-(5-phenyl-4-(pyridin-2-ylmethylamino)phthalazin-1-yl)pyridin-3-ylcarbamate], for which the inhibition at 0.3 µM came to 91.6%. Take `CS(=O)(=O)Nc1cncc(-c2nnc(NCc3ccccc3)c3c(-c4ccccc4)cccc23)c1` [Example 3, N-(5-(4-(Benzylamino)-5-phenylphthalazin-1-yl)pyridin-3-yl)methanesulfonamide]: the inhibition at 0.3 µM is 77.3%. Take `NC(=O)c1cncc(-c2nnc(NCc3ccccc3)c3c(-c4ccccc4)cccc23)c1` [Example 23, 5-(4-(Benzyl-amino)-5-phenylphthalazin-1-yl)nicotinamide]: the inhibition at 0.3 µM turned out to be 83.5%. Still for that read-out and setting: with `COCCNC(=O)c1cncc(-c2nnc(NCc3ccccn3)c3c(-c4ccccc4)cccc23)c1` [Example 46, N-(2-Methoxyethyl)-5-(5-phenyl-4-((pyridin-2-ylmethyl)amino)phthalazin-1-yl)nicotinamide] the figure was 51.1%; with `Nc1cncc(-c2nnc(NCc3ccccn3)c3c(-c4ccccc4)cccc23)c1` [Example 9, 4-(5-Aminopyridin-3-yl)-8-phenyl-N-(pyridin-2-ylmethyl) phthalazin-1-amine], 87.1%. Regarding `C[C@@H](Nc1nnc(-c2cncc(S(N)(=O)=O)c2)c2cccc(-c3ccccc3)c12)c1ccccc1` [Example 42, (R)-5-(5-Phenyl-4-((1-phenylethyl)amino)phthalazin-1-yl)pyridine-3-sulfonamide], the inhibition at 0.3 µM is 91.2%. Consider `NS(=O)(=O)c1cncc(-c2nnc(NCc3ccccc3)c3c(-c4ccc(F)cc4)cccc23)c1` [Example 28, 5-(4-(Benzylamino)-5-(4-fluorophenyl)phthalazin-1-yl)pyridine-3-sulfonamide], for which the inhibition at 0.3 µM turned out to be 41.5%.

Take `NS(=O)(=O)c1cncc(-c2nnc(NCc3cc(Cl)cc(Cl)c3)c3c(-c4ccccc4)cccc23)c1` [Example 39, 5-(4-((3,5-Dichlorobenzyl)amino)-5-phenylphthalazin-1-yl)pyridine-3-sulfonamide]: the inhibition at 0.3 µM stood at 78.4%. With `O=C(NCCc1ccccc1F)c1cncc(-c2nnc(NCc3ccccn3)c3c(-c4ccccc4)cccc23)c1` [Example 50, N-(2-Fluorophenethyl)-5-(5-phenyl-4-((pyridin-2-ylmethyl)amino)phthalazin-1-yl)nicotinamide], the inhibition at 0.3 µM came to 98.6%.

On to `CC(C)OC(=O)Nc1cncc(-c2nnc(NCc3ccccc3)c3c(-c4ccccc4)cccc23)c1` [Example 4], for which the inhibition at 0.3 µM was 95.4%. As for `CC(C)CC(=O)Nc1cncc(-c2nnc(NCc3ccccn3)c3c(-c4ccccc4)cccc23)c1` [Example 30, 3-Methyl-N-(5-(5-phenyl-4-((pyridin-2-ylmethyl)amino)phthalazin-1-yl)pyridin-3-yl)butanamide], the inhibition at 0.3 µM is 92.5%. `NS(=O)(=O)c1cncc(-c2nnc(NCc3cccc(F)c3)c3c(-c4ccccc4)cccc23)c1` [Example 32, 5-(4-((3-Fluorobenzyl)amino)-5-phenylphthalazin-1-yl)pyridine-3-sulfonamide]: the inhibition at 0.3 µM was found to be 53.2%. For the molecule `O=C(NCC(O)CO)c1cncc(-c2nnc(NCc3ccccn3)c3c(-c4ccccc4)cccc23)c1` (stereo not drawn) [Example 6, N-(2,3-Dihydroxypropyl)-5-(5-phenyl-4-(pyridin-2-ylmethylamino)phthalazin-1-yl)nicotinamide], the inhibition at 0.3 µM amounted to 38.3%. Consider `CC(C)OCCNC(=O)c1cncc(-c2nnc(NCc3ccccn3)c3c(-c4ccccc4)cccc23)c1` [Example 48, N-(2-Isopropoxyethyl)-5-(5-phenyl-4-((pyridin-2-ylmethyl)amino)phthalazin-1-yl)nicotinamide], for which the inhibition at 0.3 µM stood at 71.1%. Take `CC(C)(C)Oc1cc(-c2nnc(NCc3ccccc3)c3c(-c4ccccc4)cccc23)ccn1` [Example 13, N-Benzyl-4-(2-tert-butoxypyridin-4-yl)-8-phenylphthalazin-1-amine]: the inhibition at 0.3 µM amounted to 43%. Still for that read-out and setting: the result for `OCC(O)c1cncc(-c2nnc(NCc3ccccn3)c3c(-c4ccccc4)cccc23)c1` (racemic) [Example 7, 1-(5-(5-Phenyl-4-(pyridin-2-ylmethylamino)phthalazin-1-yl)pyridin-3-yl)ethane-1,2-diol] reads 16%; that for `NS(=O)(=O)c1cncc(-c2nnc(NCc3ccccc3)c3c(-c4ccccc4)cccc23)c1` [Example 8, 5-(4-(Benzylamino)-5-phenylphthalazin-1-yl)pyridine-3-sulfonamide], 90.5%. On the same count and under the same terms, the result for `CC(=O)Nc1ccc(-c2nnc(NCc3ccccc3)c3c(-c4ccccc4)cccc23)cn1` [Example 21, N-(5-(4-(Benzyl-amino)-5-phenylphthalazin-1-yl)pyridin-2-yl)acetamide] reads 97.9%; that for `NC(=O)c1cncc(-c2nnc(NCc3ccccn3)c3c(-c4ccccc4)cccc23)c1` [Example 5, 5-(5-Phenyl-4-(pyridin-2-ylmethylamino)phthalazin-1-yl)nicotinamide], 76%. On to `Nc1ccc(-c2nnc(NCc3ccccc3)c3c(-c4ccccc4)cccc23)cn1` [Example 20, 4-(6-Aminopyridin-3-yl)-N-benzyl-8-phenylphthalazin-1-amine], for which the inhibition at 0.3 µM came to 92.8%.

`O=C(NCc1ccc(OC(F)(F)F)cc1)c1cncc(-c2nnc(NCc3ccccn3)c3c(-c4ccccc4)cccc23)c1` [Example 44, 5-(5-Phenyl-4-((pyridin-2-ylmethyl)amino)phthalazin-1 yl)-N-(4-(trifluoromethoxy)benzyl)nicotinamide]: the inhibition at 0.3 µM turned out to be 96.5%. Turning to `NS(=O)(=O)c1cncc(-c2nnc(NCc3c(F)cccc3F)c3c(-c4ccccc4)cccc23)c1` [Example 36, 5-(4-((2,6-Difluorobenzyl)amino)-5-phenylphthalazin-1-yl)pyridine-3-sulfonamide], the inhibition at 0.3 µM was determined as 91.1%. Same read-out and setting: with `Cc1cnc(CNC(=O)c2cncc(-c3nnc(NCc4ccccn4)c4c(-c5ccccc5)cccc34)c2)cn1` [Example 45, N-((5-Methylpyrazin-2-yl)methyl)-5-(5-phenyl-4-((pyridin-2-ylmelhyl)amino)phthalazin-1-yl) nicotinamide] the figure was 75.6%.
